Experimental findings from patent US8222422B2, “Crystal of benzimidazole compound” (Takeda Pharmaceutical Company Limited, priority 2008, dated 2012) are described below.

What all share (assay type): physicochemical
Series [1] in a line: Solubility Test, aqueous solution with pH 9.2. The following applies: aqueous buffer, thermodynamic from solid, 10.75 mg almost dissolved when 13.5 mL was added. As to the method: To the crystals (10.75 mg) obtained in Example 6 was gradually added dropwise an aqueous solution with pH 9.2. The crystals were almost dissolved at the time point when 13.5 mL was added (solubility: 0.80 mg/mL).

A short description of series [2]: Solubility Test, aqueous solution with pH 6.9. The following applies: aqueous buffer, thermodynamic from solid, 8.87 mg almost dissolved when 35 mL was added. As to the method:
To the crystals (8.87 mg) obtained in Example 6 was gradually added dropwise an aqueous solution with pH 6.9.

The nature of series [3]: Stability Test (residual rate of the crystal after preservation, by HPLC). The following applies: crystals in a brown glass bottle, preserved at 40° C. for 2 weeks. Here is the method: Residual rate was measured by HPLC (YMC-Pack AQ-302 ODS 4.6 mm i.d.×150 mm, temperature: about 25° C., mobile phase: (A) water (B) acetonitrile:water:triethylamine=160:40:1, gradient program, detection wavelength: 285 nm).

SMILES strings stand for the structures. ≈ marks a conversion by molar mass, not a printed value.

Usually solubility stands for the dissolved amount per volume that the medium holds. The low end stands for little dissolved substance, the high end for much dissolved substance.

In the case of `Cc1c(OCC(F)(F)F)ccnc1C[S@@+]([O-])c1nc2ccccc2[nH]1` [Example 6, (R)-2-[[[3-methyl-4-(2,2,2-trifluoroethoxy)-2-pyridyl]methyl]sulfinyl]benzimidazole], the solubility in series [1] was 800 µg/mL (≈ 2170 µM); in series [2], 250 µg/mL (≈ 677 µM). The compound also returned a residual rate in series [3] of 100.7%.
